Data on three sequences can be found in US5243027A, “Method of preparing angiotensin converting enzyme inhibitors” (Unitika, Ltd., priority 1990, dated 1993).

No end group written: not given here.

The target of the experiment is T1, angiotensin converting enzyme (Oryctolagus cuniculus, UniProt P12822).
T1 construct: The supernatant was dialyzed against the same buffer to remove low-molecular weight substances resulting in an angiotensin converting enzyme solution; tissue Sigma Co; host or cells: rabbit lung (acetone-dried preparation)
T1 sequence (P12822 34-1310): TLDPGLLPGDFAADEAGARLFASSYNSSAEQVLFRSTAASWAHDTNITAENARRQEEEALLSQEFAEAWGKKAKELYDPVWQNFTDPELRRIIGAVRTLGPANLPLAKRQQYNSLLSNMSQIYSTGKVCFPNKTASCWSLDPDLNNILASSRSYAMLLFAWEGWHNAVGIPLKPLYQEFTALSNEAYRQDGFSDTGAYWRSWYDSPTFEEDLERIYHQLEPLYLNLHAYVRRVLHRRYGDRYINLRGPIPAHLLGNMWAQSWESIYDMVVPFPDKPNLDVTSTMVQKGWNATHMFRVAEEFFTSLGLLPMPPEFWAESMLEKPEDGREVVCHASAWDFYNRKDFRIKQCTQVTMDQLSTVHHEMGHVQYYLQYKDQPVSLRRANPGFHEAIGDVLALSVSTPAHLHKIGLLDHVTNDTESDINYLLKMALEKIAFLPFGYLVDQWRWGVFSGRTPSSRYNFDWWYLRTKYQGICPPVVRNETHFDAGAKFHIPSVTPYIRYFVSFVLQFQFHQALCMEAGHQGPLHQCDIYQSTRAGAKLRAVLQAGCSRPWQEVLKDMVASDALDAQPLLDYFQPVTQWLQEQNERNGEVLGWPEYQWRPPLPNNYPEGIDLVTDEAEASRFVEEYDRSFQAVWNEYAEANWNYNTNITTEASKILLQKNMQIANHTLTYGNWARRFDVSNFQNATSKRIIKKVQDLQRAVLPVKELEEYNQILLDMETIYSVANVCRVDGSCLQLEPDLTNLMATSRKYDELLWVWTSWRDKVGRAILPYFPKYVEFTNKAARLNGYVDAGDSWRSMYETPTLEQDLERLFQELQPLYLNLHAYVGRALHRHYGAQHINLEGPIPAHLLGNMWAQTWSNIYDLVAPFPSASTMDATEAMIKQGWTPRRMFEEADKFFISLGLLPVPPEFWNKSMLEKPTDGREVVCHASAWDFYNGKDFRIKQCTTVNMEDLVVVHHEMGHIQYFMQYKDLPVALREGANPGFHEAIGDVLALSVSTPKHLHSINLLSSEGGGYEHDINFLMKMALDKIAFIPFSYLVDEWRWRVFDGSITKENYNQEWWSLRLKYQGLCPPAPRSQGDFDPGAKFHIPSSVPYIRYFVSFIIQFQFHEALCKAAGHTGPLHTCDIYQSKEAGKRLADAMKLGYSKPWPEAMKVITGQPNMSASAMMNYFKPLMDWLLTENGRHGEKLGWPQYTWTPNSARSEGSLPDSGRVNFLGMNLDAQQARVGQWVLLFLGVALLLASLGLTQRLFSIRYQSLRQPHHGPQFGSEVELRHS
Nature of the experiment: Determination of angiotensin converting enzyme inhibitory activity (method of Cushmann et al., hippuryl-L-histidine-L-leucine substrate). In kind it is biochemical. Particulars: rabbit lung enzyme, 37° C., 30 minutes, pH 8.3; peptides isolated from Bacillus stearothermophilus hydrolysate; read-out: IC50 (concentration of the sample showing 50% inhibition) (converted). As for the experimental part:
Angiotensin converting enzyme inhibitory activity during isolation and purification was determined using the method of Cushmann et al., Biochem. Pharacol., Vol. 20, pp. 1637-1648 (1971).
A commercially available acetone-dried preparation of rabbit lungs (product of Sigma Co.) was dissolved in a 50 mM potassium phosphate buffer solution (pH=8.3) at 4° C. and the solution was centrifuged at 37,000×g for 30 minutes. The supernatant was dialyzed against the same buffer to remove low-molecular weight substances resulting in an angiotensin converting enzyme solution.
Hippuryl-L-histidine-L-leucine (product of Peptide Kenkyusho) was added to a 0.1M potassium phosphate buffer solution (pH=8.3) containing 0.3M NaCl to prepare a 2.5 mM enzyme substrate solution. The above-prepared angiotensin converting enzyme, water and a test sample were added to the substrate solution in a final volume of 0.25 ml and the system was allowed to react at 37° C. for 30 minutes. Then, 0.25 ml of 1N HCl was added thereto to stop the reaction and 1.5 ml of ethyl acetate was added to extract released hippuric acid. A 1 ml aliquot of the ethyl acetate extract was evaporated to dryness. To the residue was added 1 ml of distilled water and the absorbance at 228 nm was measured to determine the amount of hippuric acid.
Percent inhibition was calculated from the above-measured absorbance (A) and an absorbance of a blank (B) according to the following equation: [formula] The concentration of the sample showing 50% inhibition was taken as IC50.
Turning to “GKEIIVKAER [(a), Gly-Lys-Glu-Ile-Ile-Val-Lys-Ala-Glu-Arg]”, the IC50 is 65.7 µM.
The value for “GKMVKVVSWY [(b), Gly-Lys-Met-Val-Lys-Val-Val-Ser-Trp-Tyr]” was 6.69 µM; that for “AYIASKGL [(c), Ala-Tyr-Ile-Ala-Ser-Lys-Gly-Leu]” was 35 µM.
